# Assay results taken from patent US10774084B2, “Adenine derivatives and their use as UV-photoprotective agents” (UNIVERZITA PALACKEHO V OLOMOUCI, priority 2015, dated 2020).
# What was measured:
# [1] = system: Triticum aestivum cv. Hereward leaf segments; experiment: Senescence bioassay on detached wheat leaf segments (chlorophyll retention); details: for maximum effective concentration: 96 h in the dark; for activity (%) [10^−4 mol · l^−1 BAP = 100%]: at maximum effective concentration
# Method: Seeds of winter wheat, Triticum aestivum cv. Hereward, were washed under running water for 24 hours and then sown on vermiculite soaked with Knop's solution. They were placed in the growth chamber at 25° C. with a 16/8 h light period at […]. After 7 days, the first leaf was fully developed and the second leaf had started to grow. A tip section of the first leaf, approximately 35 mm long, was removed from 5 seedlings and trimmed slightly to a combined weight of 100 mg. The basal ends of the five leaf tips were placed in the wells of a microtiter polystyrene plate containing 150 μL of the tested derivative solution each. The entire plate was inserted into a plastic box lined with paper tissues soaked in distilled water to prevent leaf sections from drying out. After 96 h incubation in the dark at 25° C., the leaves were removed and chlorophyll extracted by heating at 80° C. for 10 min in 5 mL of 80% ethanol (v/v). The sample volume was then restored to 5 mL by the addition of 80% ethanol (v/v). The absorbance of the extract was recorded at 665 nm. In addition, chlorophyll extracts from fresh leaves and leaf tips incubated in deionised water were measured. The results are means of five replicates and the entire test was repeated twice. […] The compounds to be tested were dissolved in dimethylsulfoxide (DMSO) and the solution brought up to 10^−3 M with distilled water. […] The activity obtained for 10^−4 M of BAP was postulated as 100%. Kinetin was used as the second standard. Newly prepared compounds generally exceeded the efficiency of standard (BAP) by 10% of its activity (Tab. 5).
# [2] = system: BJ human fibroblast cells; experiment: Calcein AM cytotoxicity assay; assay type: cell-based; details: 72 hrs
# From the text: (§1) One of the parameters used as the base for cytotoxic analysis is metabolic activity of viable cells. Microtiter assay, which uses the Calcein AM, is now widely used to quantify cell proliferation and cytotoxicity. The quantity of […] Calcein AM corresponds to the number of viable cells in culture. The cell lines of breast cancer (MCF-7), human erythromleukemia (K562), BJ human fibroblast cells (BJ) and human keratinocyte cell line (HaCaT) were used for routine screening of cytotoxicity of the compounds. The cells were maintened in Nunc/Corning 80 cm^2 plastic bottles and grown in media for cell culture (DMEM containing 5 g/l of glucose, 2 mM of glutamin, 100 U/ml of penicilin, 100 μg/ml of streptomycin, 10% of fetal bovine serum and sodium hydrogencarbonate). Cell suspensions were diluted according to cell types and according to expected final cell density (10^4 of cells per well according to characteristics of cell growth), pippeted 80 μl of cell suspension on 96-well microtiter plates. Innoculates were stabilized by 24 hrs preincubation at 37° C. in CO2. Particular concentrations of tested compounds were added in time zero as 20 μl aliquotto wells of microtiter plates. Usually, the compounds were diluted into six concentrations in four-fold dilution series. In routine testing, the highest well concentration was 166.7 μM, of change dependent on the substance. All drug concentrations were examined in duplicates. The incubation of cells with tested derivatives lasted 72 hrs at 37° C., 100% humidity and in the atmosphere of CO2. At the end of the incubation period, the cells were tested and analysed according to the addition of Calcein AM (Molecular probes) solution and the incubation lasted for next 1 hour. Fluorescence (FD) was measured using Labsystem FIA reader Fluorskan Ascent (Microsystems). The survival of tumor cells (The tumor cell survival-TCS) was counted according to equation: […](FDwell with derivative/FDcontrol well)×100%. The value of GI50, that is equal to the concentration of compound at which 50% of tumour cells are terminated. To evaluate the antitumor activity was tested toxicity of new derivatives on panel of cell lines of different histogenetic and species origin (Tab. 6, G150 concentration given in μM). […] Effective derivatives killed tumor cells in concentrations close to 0.1 to 50. None of the newly prepared compounds only reached the value.
# HaCaT [3] = experiment: Calcein AM cytotoxicity assay; assay type: cell-based; details: Homo sapiens, 72 hrs
# From the text: as §1
# K562 = experiment: Calcein AM cytotoxicity assay; assay type: cell-based; details: Homo sapiens, 72 hrs
# From the text: as §1
# MCF-7 = experiment: Calcein AM cytotoxicity assay; assay type: cell-based; details: Homo sapiens, MCF7, 72 hrs
# From the text: as §1
# [4] = system: skin fibroblasts BJ and keratinocytes HaCaT; experiment: MTT in vitro cytotoxicity test for skin cells; assay type: cell-based; details: Homo sapiens; 72 hour treatment; table does not say which cell line (BJ, HaCaT)
# Method: MTT assay is a standard test of toxicity based on photometric measurement of the ability of metabolically active cells to reduce MTT (3-(4,5-dimethylthiazol-2-yl)-2,5-diphenyltetrazolium bromide). Using the assay, the effects of 72 hour treatments with several concentrations of the compounds (sixfold dilution, maximal concentration=50 microM) on viability of skin fibroblasts BJ and keratinocytes HaCaT were evaluated. About 5,000 cells were seeded per well of a 96-well plate 24 hours before the treatment. DMSO vehiculum was used as a negative control. After 72 hour treatment, new medium with MTT (Sigma, M2128) was added to a final concentration of 0.5 mg/ml. After 3 hours, medium was removed and resulting formazan in the cells was dissolved in DMSO. The absorbance was measured at 570 nm (640 nm reference wavelength). The IC50 values were calculated from the dose-response curves. 6-furfurylaminopurine riboside was used as positive controls.
# [5] = system: Normal human dermal fibroblasts (NHDF); experiment: In vitro UVA/UVB photoprotection test on NHDF (Example 9); assay type: cell-based
# From the text: Normal human dermal fibroblasts (NHDF) were used as an in vitro model. Cells were isolated from tissue specimens obtained from healthy patients undergoing plastic surgery at the Department of Plastic and Aesthetic Surgery (University Hospital Olomouc). The use of skin tissue was in accordance with the Ethics Committee of the University Hospital and Faculty of Medicine and Dentistry, Palacky University, Olomouc and all patients signed written informed consent. Fibroblasts were used between the 2nd and 4th passage. For all experiments the fibroblasts were seeded onto 96-well plates at a density of 0.8×10^5 cells/ml (0.2 ml per well) of cultivation medium (DMEM supplemented with fetal calf serum (10%, v/v), penicillin ([…]) and streptomycin (100 U/ml)). Test substances included compounds number 1, 3, 9, 15 and 20. Compounds were dissolved in DMSO and then diluted in serum free medium (DMEM supplemented with penicillin ([…]) and streptomycin (100 U/ml)). After 24 h incubation was cultivation medium changed to serum free medium containing test compound or DMSO (negative control). The final applied concentrations range was 3.9-31.3 μmol/ll. As a control serum free medium supplemented with appropriate concentration of DMSO (0.5%, v/v) was used. Rosmarinic acid was used as positive control. Each test compound was in parallel applied on two 96-well plates with NHDF. After 60 minutes incubation medium with test compound was discarded, cells were washed two-times with PBS and PBS supplemented with glucose (1 mg/ml) was applied. To study UVA photoprotection, a plate was exposed to a cytotoxic dose of UVA radiation (7.5 J/cm^2) using a solar simulator SOL 500 (Dr. Hoenle Technology, Germany) equipped with a H1 filter transmitting wavelengths of 320-400 nm. To study UVB photoprotection, a plate was exposed to a cytotoxic dose of UVB radiation (150 mJ/cm^2) using the solar simulator equipped with a H2 filter transmitting wavelengths of 295-320 nm. Intensity of UVA or UVB radiation was evaluated before each irradiation by UVA- or UVB-meter. Control (non-irradiated) plates were for the period of irradiation incubated in dark. After UVA or UVB exposure PBS with glucose was discarded and serum free medium was applied. After 24 hours (37° C., 5% CO2) cell damage was evaluated by neutral red (NR) incorporation into viable cells. Medium was discarded and NR solution (0.03% w/v, PBS) was applied. After 60 minutes NR solution was discarded, cells were fixed with a mixture of formaldehyde (0.5%, v/v) and CaCl2 (1%, m/v) in ratio 1:1 and then NR was dissolved in methanol (50%, v/v) with acetic acid (1%, v/v). After 5 minutes of intensive shaking absorbance was measured at 540 nm. Experiments were performed in four independent repetitions with use of cells from four donors to minimize individual sensitivity of donor cells. Photoprotective effect was evaluated by comparison of experimental data (absorbance) of test compounds with a positive control and a negative control (according to the following equation:
# [formula] • As . . . absorbance of sample (cells pre-incubated with test compounds in serum free medium and irradiated) • Anc . . . absorbance of negative control (cells pre-incubated with s DMSO in serum free medium and non-irradiated=incubated in dark) • Apc . . . absorbance of positive control (cells pre-incubated with s DMSO in serum free medium and irradiated)
# HaCaT [6] = experiment: In vitro UVA/UVB photoprotection test on HaCaT; assay type: cell-based, human
# Method: Spontaneously Immortalized Aneuploid Human Keratinocyte Cell Line (HaCaT) was bought from CLS (Eppeheim, Germany) and used as an in vitro model. For all experiments the keratinocytes were seeded onto 96-well plates at a density of 1.6×10^5 cells/ml (0.2 ml per well) of growth medium (DMEM supplemented with fetal bovine serum (10%), penicillin ([…]) and streptomycin (100 U/ml)).
# Test substances included compounds number 3, 9, 15 and 20. Compounds were dissolved in DMSO and then diluted in serum free medium (DMEM supplemented penicillin ([…]) and streptomycin (100 U/ml)). After 24 h incubation was growth medium changed to serum free medium containing test compounds. The final applied concentration range was 3.9-31.25 μmol/l. As a control, serum free medium supplemented with appropriate concentration of DMSO (0.5%, v/v) was used. Rosmarinic acid was used as positive control. After 60 minutes incubation with test compounds medium was discarded, cells were washed two-times with PBS and PBS supplemented with glucose (1 mg/ml) was applied. To study UVA photoprotection, a plate was exposed to a cytotoxic dose of UVA radiation (10 J/cm2) using a solar simulator SOL 500 (Dr. Hoenle Technology, Germany) equipped with a H1 filter transmitting wavelengths of 320-400 nm. To study UVB photoprotection, a plate was exposed to a cytotoxic dose of UVB radiation (150 mJ/cm2) using the solar simulator equipped with a H2 filter transmitting wavelengths of 295-320 nm. Intensity of UVA or UVB radiation was evaluated before each irradiation by UVA- or UVB-meter. Control (non-irradiated) plates were for the period of irradiation incubated in dark. After UVA or UVB exposure PBS with glucose was discarded and serum free medium was applied. After 24 hours (37° C., 5% CO2) cell damage was evaluated by neutral red (NR) incorporation into viable cells. Medium was discarded and NR solution (0.03% w/v, PBS) was applied. After 60 minutes NR solution was discarded, cells were fixed with a mixture of formaldehyde (0.5%, v/v) and CaCl2 (1%, m/v) in ratio 1:1 and then NR was dissolved in methanol (50%, v/v) with acetic acid (1%, v/v).
# After 5 minutes of intensive shaking absorbance was measured at 540 nm. Experiments were performed in four independent repetitions with use of […] to minimize individual sensitivity of donor cells. Photoprotective effect was evaluated by comparison of experimental data (absorbance) of test compounds with a positive control and a negative control (according to the following equation: […]
# As . . . absorbance of sample (cells pre-incubated with test compounds in serum free medium and irradiated)
# Anc . . . absorbance of negative control (cells pre-incubated with s DMSO in serum free medium and non-irradiated=incubated in dark)
# Apc . . . absorbance of positive control (cells pre-incubated with s DMSO in serum free medium and irradiated)
structure (smiles),measurement,setting,value
c1coc(CNc2ncnc3c2ncn3C2CCCO2)c1 (centres unmarked) [6-furfurylamino-9-(tetrahydrofuran-2-yl)purine],maximum effective concentration,[1],10^−4 mol · l^−1
same,activity (%) [10^−4 mol · l^−1 BAP = 100%],[1],114 ± 3%
same,GI50,[2],> 100 µM
same,GI50,HaCaT [3],> 100 µM
same,GI50,K562,> 100 µM
same,GI50,MCF-7,> 100 µM
"OC[C@H]1OC(n2cnc3c(NCc4ccco4)ncnc32)[C@H](O)[C@@H]1O (some centres unmarked) [6-furfurylamino-9-ribosylpurine, reference compound]",IC50,[4],≤ 3 µM
"c1ccc(CNc2ncnc3nc[nH]c23)cc1 [BAP, 6-benzylaminopurine, reference compound]",maximum effective concentration,[1],10^−4 mol · l^−1
same,activity (%) [10^−4 mol · l^−1 BAP = 100%],[1],100 ± 1%
"Cc1ccsc1CNc1ncnc2c1ncn2C1CCCO1 (centres unmarked) [Compound 10, 6-(3-methylthiophen-2-ylmethylamino)-9-(tetrahydrofuran-2-yl)purine]",maximum effective concentration,[1],10^−4 mol · l^−1
same,activity (%) [10^−4 mol · l^−1 BAP = 100%],[1],110 ± 7%
"O=C(/C=C/c1ccc(O)c(O)c1)O[C@H](Cc1ccc(O)c(O)c1)C(=O)O [RA, rosmarinic acid, reference compound]",Protection (%),"[5]; UVA 7.5 J/cm^2, 3.9 μmol/l",6.1%
same,Protection (%),"[5]; UVA 7.5 J/cm^2, 7.8 μmol/l",14.7%
same,Protection (%),"[5]; UVA 7.5 J/cm^2, 15.6 μmol/l",17.0%
same,Protection (%),"[5]; UVA 7.5 J/cm^2, 31.3 μmol/l",19.3%
same,Protection (%),"[5]; UVB 150 mJ/cm^2, 3.9 μmol/l",36.8%
same,Protection (%),"[5]; UVB 150 mJ/cm^2, 7.8 μmol/l",50.9%
same,Protection (%),"[5]; UVB 150 mJ/cm^2, 15.6 μmol/l",52.9%
same,Protection (%),"[5]; UVB 150 mJ/cm^2, 31.3 μmol/l",67.7%
same,Protection (%),"HaCaT [6]; Table 17: UVA-induced damage (10 J/cm2), 3.9 μmol/l",23.6%
same,Protection (%),"HaCaT [6]; Table 17: UVA-induced damage (10 J/cm2), 7.8 μmol/l",42.3%
same,Protection (%),"HaCaT [6]; Table 17: UVA-induced damage (10 J/cm2), 15.6 μmol/l",36.2%
same,Protection (%),"HaCaT [6]; Table 17: UVA-induced damage (10 J/cm2), 31.3 μmol/l",44.0%
same,Protection (%),"HaCaT [6]; Table 18: titled UVA-induced damage, 3.9 μmol/l",22%
same,Protection (%),"HaCaT [6]; Table 18: titled UVA-induced damage, 7.8 μmol/l",48.5%
same,Protection (%),"HaCaT [6]; Table 18: titled UVA-induced damage, 15.6 μmol/l",55.7%
same,Protection (%),"HaCaT [6]; Table 18: titled UVA-induced damage, 31.3 μmol/l",54.3%
"c1coc(CNc2ncnc3nc[nH]c23)c1 [kinetin, 6-furfurylaminopurine, reference compound]",maximum effective concentration,[1],10^−4 mol · l^−1
same,activity (%) [10^−4 mol · l^−1 BAP = 100%],[1],98 ± 4%
